{"source": "ChEMBL document CHEMBL1145244", "about": "“In vitro advanced antimycobacterial screening of isoniazid-related hydrazones, hydrazides and cyanoboranes: part 14” (2005)", "key": {"[1]": {"test_system": "Mycobacterium tuberculosis", "experiment": "Ratio of effective concentration required for the reduction in colony forming units (CFU) at seven days compared to drug free controls to that of MIC against Mycobacterium tuberculosis Erdman", "assay_type": "functional"}, "[2]": {"test_system": "Vero", "experiment": "Selective index of IC50 of Vero Cells to that of MIC of Mycobacterium tuberculosis H37Rv", "assay_type": "functional, Chlorocebus sabaeus"}, "[3]": {"test_system": "Mycobacterium tuberculosis", "experiment": "Effective concentration required for the reduction in colony forming units (CFU) at seven days compared to drug free controls", "assay_type": "functional", "conditions": "168 h"}, "[4]": {"test_system": "Mycobacterium tuberculosis", "experiment": "In vitro antimycobacterial activity against Mycobacterium tuberculosis Erdman in broth cluture infected with macrophages", "assay_type": "functional"}, "[5]": {"test_system": "Mycobacterium tuberculosis", "experiment": "In vitro antimycobacterial activity against Mycobacterium tuberculosis H37Rv in broth cluture infected with macrophages", "assay_type": "functional"}, "[6]": {"test_system": "Mycobacterium tuberculosis", "experiment": "In vitro antimycobacterial activity against Mycobacterium tuberculosis H37Rv in broth cluture infected with macrophages; Range 0.025-0.05", "assay_type": "functional"}}}
{"molecule": "C/C(=N\\NC(=O)c1ccncc1)c1ccc(F)cc1", "values": [{"measurement": "Ratio", "setting": "[1]", "value": 1.18}, {"measurement": "Selective index", "setting": "[2]", "value": ">78"}, {"measurement": "EC90", "setting": "[3]", "value": 1.84, "unit": "µg/mL"}, {"measurement": "EC99", "setting": "[3]", "value": 5.25, "unit": "µg/mL"}, {"measurement": "MIC", "setting": "[4]", "value": 1.56, "unit": "µg/mL"}, {"measurement": "MIC", "setting": "[5]", "value": 1.6, "unit": "µg/mL"}]}
{"molecule": "C/C(=N\\NC(=O)c1ccncc1)c1cccc(/C(C)=N/NC(=O)c2ccncc2)n1", "values": [{"measurement": "Ratio", "setting": "[1]", "value": 0.23}, {"measurement": "Selective index", "setting": "[2]", "value": 320.5}, {"measurement": "EC90", "setting": "[3]", "value": 0.09, "unit": "µg/mL"}, {"measurement": "EC99", "setting": "[3]", "value": 0.29, "unit": "µg/mL"}, {"measurement": "MIC", "setting": "[4]", "value": 0.39, "unit": "µg/mL"}, {"measurement": "MBC", "setting": "[5]", "value": 12.5, "unit": "µg/mL"}, {"measurement": "MIC", "setting": "[5]", "value": "≤ 0.2", "unit": "µg/mL"}]}
{"molecule": "N#CC[n+]1ccc(C(=O)NNCc2ccccc2)cc1", "values": [{"measurement": "Ratio", "setting": "[1]", "value": 0.0093}, {"measurement": "EC90", "setting": "[3]", "value": 0.116, "unit": "µg/mL"}, {"measurement": "EC99", "setting": "[3]", "value": 1.49, "unit": "µg/mL"}, {"measurement": "MIC", "setting": "[4]", "value": 12.5, "unit": "µg/mL"}, {"measurement": "MBC", "setting": "[5]", "value": 1.56, "unit": "µg/mL"}, {"measurement": "MIC", "setting": "[5]", "value": 0.8, "unit": "µg/mL"}]}
{"molecule": "CC(NNC(=O)c1ccncc1)c1ccccc1F", "note": "(stereo not drawn)", "values": [{"measurement": "Ratio", "setting": "[1]", "value": 0.81}, {"measurement": "Selective index", "setting": "[2]", "value": 78.12}, {"measurement": "EC90", "setting": "[3]", "value": 2.54, "unit": "µg/mL"}, {"measurement": "EC99", "setting": "[3]", "value": 6.06, "unit": "µg/mL"}, {"measurement": "MIC", "setting": "[4]", "value": 3.13, "unit": "µg/mL"}, {"measurement": "MIC", "setting": "[5]", "value": 1.6, "unit": "µg/mL"}]}
{"molecule": "C/C=N/NC(=O)c1ccncc1", "values": [{"measurement": "Ratio", "setting": "[1]", "value": 1.2}, {"measurement": "Selective index", "setting": "[2]", "value": ">2500"}, {"measurement": "EC90", "setting": "[3]", "value": 0.03, "unit": "µg/mL"}, {"measurement": "EC99", "setting": "[3]", "value": 0.08, "unit": "µg/mL"}, {"measurement": "MIC", "setting": "[4]", "value": 0.025, "unit": "µg/mL"}, {"measurement": "MBC", "setting": "[5]", "value": 0.05, "unit": "µg/mL"}, {"measurement": "MIC", "setting": "[5]", "value": 0.025, "unit": "µg/mL"}]}
{"molecule": "N#CC[n+]1ccc(C(=O)NNCC(F)(F)F)cc1", "values": [{"measurement": "Ratio", "setting": "[1]", "value": 0.091}, {"measurement": "Selective index", "setting": "[2]", "value": 122}, {"measurement": "EC90", "setting": "[3]", "value": 1.14, "unit": "µg/mL"}, {"measurement": "EC99", "setting": "[3]", "value": 10.6, "unit": "µg/mL"}, {"measurement": "MIC", "setting": "[4]", "value": 12.5, "unit": "µg/mL"}, {"measurement": "MBC", "setting": "[5]", "value": 3.13, "unit": "µg/mL"}, {"measurement": "MIC", "setting": "[5]", "value": 0.78, "unit": "µg/mL"}]}
{"molecule": "O=C(N/N=C/c1ccc(C(F)(F)F)cc1)c1ccncc1", "values": [{"measurement": "Ratio", "setting": "[1]", "value": 0.4}, {"measurement": "Selective index", "setting": "[2]", "value": ">1250"}, {"measurement": "EC90", "setting": "[3]", "value": 0.04, "unit": "µg/mL"}, {"measurement": "EC99", "setting": "[3]", "value": 0.09, "unit": "µg/mL"}, {"measurement": "MIC", "setting": "[4]", "value": 0.1, "unit": "µg/mL"}, {"measurement": "MBC", "setting": "[5]", "value": 0.2, "unit": "µg/mL"}, {"measurement": "MIC", "setting": "[5]", "value": 0.05, "unit": "µg/mL"}]}
{"molecule": "O=C(N/N=C/c1ccccc1F)c1ccncc1", "values": [{"measurement": "Ratio", "setting": "[1]", "value": 1}, {"measurement": "Selective index", "setting": "[2]", "value": 168}, {"measurement": "EC90", "setting": "[3]", "value": 0.05, "unit": "µg/mL"}, {"measurement": "EC99", "setting": "[3]", "value": 0.14, "unit": "µg/mL"}, {"measurement": "MIC", "setting": "[4]", "value": 0.05, "unit": "µg/mL"}, {"measurement": "MIC", "setting": "[5]", "value": 0.05, "unit": "µg/mL"}]}
{"molecule": "NNC(=O)c1ccncc1", "note": "[ISONIAZID]", "values": [{"measurement": "MIC", "setting": "[6]", "value": 0.05, "unit": "µg/mL"}, {"measurement": "Selective index", "setting": "[2]", "value": ">20000"}, {"measurement": "EC90", "setting": "[3]", "value": 0.03, "unit": "µg/mL"}, {"measurement": "EC99", "setting": "[3]", "value": 0.42, "unit": "µg/mL"}, {"measurement": "MBC", "setting": "[5]", "value": 0.1, "unit": "µg/mL"}]}
{"molecule": "C/C(=N\\NC(=O)c1ccncc1)C(F)(F)F", "values": [{"measurement": "Ratio", "setting": "[1]", "value": 0.46}, {"measurement": "Selective index", "setting": "[2]", "value": 1160}, {"measurement": "EC90", "setting": "[3]", "value": 0.046, "unit": "µg/mL"}, {"measurement": "EC99", "setting": "[3]", "value": 0.41, "unit": "µg/mL"}, {"measurement": "MIC", "setting": "[4]", "value": 0.1, "unit": "µg/mL"}, {"measurement": "MBC", "setting": "[5]", "value": 0.2, "unit": "µg/mL"}, {"measurement": "MIC", "setting": "[5]", "value": 0.05, "unit": "µg/mL"}]}
{"molecule": "O=C(N/N=C/C(F)(F)F)c1ccncc1", "values": [{"measurement": "Selective index", "setting": "[2]", "value": 302}, {"measurement": "EC90", "setting": "[3]", "value": 0.05, "unit": "µg/mL"}, {"measurement": "EC99", "setting": "[3]", "value": 0.25, "unit": "µg/mL"}, {"measurement": "MIC", "setting": "[5]", "value": 0.05, "unit": "µg/mL"}]}
